Reference: the supplement of paper PMC10307832

compound: COC1=C(C=C(C=C1)C2=CC3=NC=CN3C(=N2)NC4=C(C=CC=N4)C(=O)N)OC [BAY61-3606] + C[C@@H](Oc1cc(-c2cnn(C3CCNCC3)c2)cnc1N)c1c(Cl)ccc(F)c1Cl [Crizotinib] (partner 1 µM); assay: relative viability (nuclei count vs DMSO), 5 days (fraction); higher = more cells survive; details: first compound 0.02 µM
Procedure, shortened: (§1)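 Values are medians from duplicate plates. Each reflects relative viability, defined as the nuclei count of treated wells over that of vehicle wells. Lung cancer cell lines in 1536-well plates were pin-tool dosed one day after seeding with one drug alone or with a fixed anchor-drug dose plus five library-drug doses (not always all listed) in √10 steps, then fixed, stained and imaged at 4× after 5 days.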

Cell Line | relative viability
NCI-H358 | 0.505
NCI-H322M | 0.901
HCC-78 | 0.385
LXF-289 | 0.753
BEN | 0.88
HARA | 1.08
HCC-827 | 0.938
NCI-H520 | 0.881
LOU-NH91 | 0.72
NCI-H2023 | 0.713
A-427 | 0.85
NCI-H647 | 1.09
PC-3 [JPC-3] | 1.03
NCI-H1755 | 0.787
NCI-H650 | 0.725
NCI-H3122 | 0.252

Cell Line | relative viability
201T | 1.1
NCI-H1975 | 0.921
HOP-62 | 0.928
NCI-H2405 | 0.856
NCI-H1355 | 1.08
NCI-H838 | 0.82
CAL-12T | 0.619
NCI-H1666 | 1.13
EPLC-272H | 1.03
NCI-H2347 | 0.749
NCI-H1915 | 0.899
NCI-H1437 | 0.973
NCI-H460 | 0.952
NCI-H1563 | 0.906
NCI-H1792 | 0.944

same assay, conditions: first compound 0.06325 µM

Cell Line | relative viability
NCI-H358 | 0.342
NCI-H322M | 0.756
HCC-78 | 0.308
LXF-289 | 0.82
BEN | 0.748
HARA | 1.08
HCC-827 | 0.952
NCI-H520 | 0.782
LOU-NH91 | 0.722
NCI-H2023 | 0.61
A-427 | 0.767
NCI-H647 | 1.1
PC-3 [JPC-3] | 0.961
NCI-H1755 | 0.786
NCI-H650 | 0.331
NCI-H3122 | 0.286
201T | 0.996
NCI-H1975 | 0.947
NCI-H2405 | 0.787
NCI-H1355 | 1.04
NCI-H838 | 0.661
CAL-12T | 0.537
EPLC-272H | 0.762
NCI-H2347 | 0.589
NCI-H1915 | 0.914
NCI-H1437 | 0.961
NCI-H460 | 0.72
NCI-H1563 | 0.868
NCI-H1792 | 1.03

same assay, conditions: first compound 0.2 µM

Cell Line | relative viability
NCI-H358 | 0.373
NCI-H322M | 0.853
HCC-78 | 0.317
LXF-289 | 0.795
BEN | 1.1
HARA | 1.06
HCC-827 | 0.942
NCI-H520 | 0.871
LOU-NH91 | 0.77
NCI-H2023 | 0.703
A-427 | 0.878
NCI-H647 | 0.963
PC-3 [JPC-3] | 0.979
NCI-H1755 | 0.839
NCI-H650 | 0.701
NCI-H3122 | 0.279

Cell Line | relative viability
201T | 1.01
NCI-H1975 | 0.907
HOP-62 | 0.823
NCI-H2405 | 0.764
NCI-H1355 | 1.05
NCI-H838 | 0.814
CAL-12T | 0.493
NCI-H1666 | 0.782
EPLC-272H | 0.89
NCI-H2347 | 0.781
NCI-H1915 | 0.857
NCI-H1437 | 0.854
NCI-H460 | 0.913
NCI-H1563 | 0.882
NCI-H1792 | 0.777

same assay, conditions: first compound 0.6325 µM

Cell Line | relative viability
NCI-H358 | 0.294
NCI-H322M | 0.842
HCC-78 | 0.343
LXF-289 | 0.821
BEN | 1.06
HARA | 1.07
HCC-827 | 0.974
NCI-H520 | 0.948
LOU-NH91 | 0.777
NCI-H2023 | 0.751
A-427 | 0.97
NCI-H647 | 1.03
PC-3 [JPC-3] | 0.96
NCI-H1755 | 0.982
NCI-H650 | 0.669
NCI-H3122 | 0.272

Cell Line | relative viability
201T | 1.02
NCI-H1975 | 0.888
HOP-62 | 1.06
NCI-H2405 | 0.849
NCI-H1355 | 1.07
NCI-H838 | 0.866
CAL-12T | 0.364
NCI-H1666 | 0.968
EPLC-272H | 0.87
NCI-H2347 | 0.848
NCI-H1915 | 0.868
NCI-H1437 | 0.984
NCI-H460 | 0.846
NCI-H1563 | 0.948
NCI-H1792 | 0.947

same assay, conditions: first compound 2 µM

Cell Line | relative viability
NCI-H358 | 0.162
NCI-H322M | 1.01
HCC-78 | 0.367
LXF-289 | 0.81
BEN | 0.84
HARA | 0.892
HCC-827 | 0.965
NCI-H520 | 0.593
LOU-NH91 | 0.662
NCI-H2023 | 0.53
A-427 | 0.845
NCI-H647 | 0.506
PC-3 [JPC-3] | 0.944
NCI-H1755 | 0.721
NCI-H650 | 0.47
NCI-H3122 | 0.219

Cell Line | relative viability
201T | 1.03
NCI-H1975 | 0.585
HOP-62 | 0.716
NCI-H2405 | 0.661
NCI-H1355 | 0.81
NCI-H838 | 0.398
CAL-12T | 0.205
NCI-H1666 | 0.969
EPLC-272H | 0.811
NCI-H2347 | 0.756
NCI-H1915 | 0.707
NCI-H1437 | 0.797
NCI-H460 | 0.182
NCI-H1563 | 0.758
NCI-H1792 | 1.08

compound: COC1=C(C=C(C=C1)C2=CC3=NC=CN3C(=N2)NC4=C(C=CC=N4)C(=O)N)OC [BAY61-3606] + CS(=O)(=O)CCNCc1ccc(-c2ccc3ncnc(Nc4ccc(OCc5cccc(F)c5)c(Cl)c4)c3c2)o1 [Lapatinib] (partner 2 µM); assay: as above; details: first compound 0.02 µM
Procedure, shortened: as §1

Cell Line | relative viability
NCI-H358 | 0.435
NCI-H322M | 0.622
HCC-78 | 0.949
LXF-289 | 0.886
BEN | 0.938
HARA | 0.798
HCC-827 | 0.2
NCI-H520 | 0.9
LOU-NH91 | 0.765
NCI-H2023 | 0.917
A-427 | 1.07
NCI-H647 | 1.13
PC-3 [JPC-3] | 0.468
NCI-H1755 | 1.08
NCI-H650 | 1.16
NCI-H3122 | 1.03

Cell Line | relative viability
201T | 1.08
NCI-H1975 | 0.996
HOP-62 | 0.918
NCI-H2405 | 1.26
NCI-H1355 | 1.07
NCI-H838 | 1.17
CAL-12T | 0.805
NCI-H1666 | 0.668
EPLC-272H | 1.18
NCI-H2347 | 1.05
NCI-H1915 | 1.02
NCI-H1437 | 0.892
NCI-H460 | 1.05
NCI-H1563 | 0.982
NCI-H1792 | 0.904

same assay, conditions: first compound 0.06325 µM

Cell Line | relative viability
NCI-H358 | 0.378
NCI-H322M | 0.612
HCC-78 | 0.682
LXF-289 | 0.945
BEN | 0.694
HARA | 0.643
HCC-827 | 0.2
NCI-H520 | 1.05
LOU-NH91 | 0.681
NCI-H2023 | 0.805
A-427 | 1.1
NCI-H647 | 1.25
PC-3 [JPC-3] | 0.482
NCI-H1755 | 1.01
NCI-H650 | 0.948
NCI-H3122 | 0.934
201T | 1.01
NCI-H1975 | 0.881
NCI-H2405 | 0.886
NCI-H1355 | 0.907
NCI-H838 | 0.875
CAL-12T | 0.596
EPLC-272H | 0.809
NCI-H2347 | 0.951
NCI-H1915 | 1.02
NCI-H1437 | 0.915
NCI-H460 | 1.19
NCI-H1563 | 0.899
NCI-H1792 | 0.951

same assay, conditions: first compound 0.2 µM

Cell Line | relative viability
NCI-H358 | 0.477
NCI-H322M | 0.596
HCC-78 | 0.82
LXF-289 | 0.95
BEN | 0.679
HARA | 0.721
HCC-827 | 0.206
NCI-H520 | 0.901
LOU-NH91 | 0.827
NCI-H2023 | 0.869
A-427 | 1.05
NCI-H647 | 1.12
PC-3 [JPC-3] | 0.478
NCI-H1755 | 0.994
NCI-H650 | 0.783
NCI-H3122 | 0.974

Cell Line | relative viability
201T | 1.11
NCI-H1975 | 0.963
HOP-62 | 1.05
NCI-H2405 | 1.05
NCI-H1355 | 0.926
NCI-H838 | 0.971
CAL-12T | 0.613
NCI-H1666 | 0.523
EPLC-272H | 0.876
NCI-H2347 | 0.924
NCI-H1915 | 0.925
NCI-H1437 | 0.729
NCI-H460 | 0.938
NCI-H1563 | 0.974
NCI-H1792 | 0.949

same assay, conditions: first compound 0.6325 µM

Cell Line | relative viability
NCI-H358 | 0.378
NCI-H322M | 0.599
HCC-78 | 0.702
LXF-289 | 0.934
BEN | 0.757
HARA | 0.862
HCC-827 | 0.226
NCI-H520 | 0.959
LOU-NH91 | 0.735
NCI-H2023 | 1.45
A-427 | 1.04
NCI-H647 | 1.11
PC-3 [JPC-3] | 0.436
NCI-H1755 | 1.12
NCI-H650 | 0.884
NCI-H3122 | 1.07

Cell Line | relative viability
201T | 1.03
NCI-H1975 | 0.925
HOP-62 | 1.06
NCI-H2405 | 1.14
NCI-H1355 | 0.948
NCI-H838 | 0.951
CAL-12T | 0.768
NCI-H1666 | 0.649
EPLC-272H | 0.878
NCI-H2347 | 0.945
NCI-H1915 | 0.878
NCI-H1437 | 0.905
NCI-H460 | 1.01
NCI-H1563 | 1.19
NCI-H1792 | 0.902

same assay, conditions: first compound 2 µM

Cell Line | relative viability
NCI-H358 | 0.288
NCI-H322M | 0.553
HCC-78 | 0.959
LXF-289 | 0.992
BEN | 0.787
HARA | 0.735
HCC-827 | 0.217
NCI-H520 | 0.729
LOU-NH91 | 0.669
NCI-H2023 | 0.591
A-427 | 1.01
NCI-H647 | 0.86
PC-3 [JPC-3] | 0.471
NCI-H1755 | 0.95
NCI-H650 | 0.801
NCI-H3122 | 0.957

Cell Line | relative viability
201T | 0.996
NCI-H1975 | 0.595
HOP-62 | 1.07
NCI-H2405 | 1.07
NCI-H1355 | 0.764
NCI-H838 | 0.621
CAL-12T | 0.637
NCI-H1666 | 0.445
EPLC-272H | 0.808
NCI-H2347 | 0.941
NCI-H1915 | 0.919
NCI-H1437 | 0.683
NCI-H460 | 0.189
NCI-H1563 | 0.809
NCI-H1792 | 0.95
